What all share (type): functional, Homo sapiens
What all share (details): Homo sapiens, Concentration 10 uM; read-out: Cell Viability

In assay [1] the test system is Colon cancer organoid. Kind of assay: Targeting of F14 CAF-induced therapy resistance in O23 CRC organoid-stroma co-culture. Cell viability is reported with Gefitinib.
Assay [2] has as its system Colon cancer organoid. Kind of assay: Targeting of F14 CAF-induced therapy resistance in O23 CRC organoid-stroma co-culture. Cell viability is reported without Gefitinib.
Assay [3] has as its system Colon cancer organoid. Kind of assay: Targeting of F14 CAF-induced therapy resistance in O14 CRC organoid-stroma co-culture. Cell viability is reported without Gefitinib.
Assay [4] deals with Colon cancer organoid. Kind of assay: Targeting of F14 CAF-induced therapy resistance in O14 CRC organoid-stroma co-culture. Cell viability is reported with Gefitinib.
Assay [5] deals with Colon cancer organoid. Kind of assay: Targeting of F14 CAF-induced therapy resistance in O23 CRC organoid-stroma co-culture. Cell viability is reported with SN-38.

`Cc1c(NC(=O)c2ccc(C(C)(C)C)cc2)cccc1-c1cn(C)c(=O)c(Nc2ccc(C(=O)N3CCOCC3)cc2)n1`: the viability at 10 µM was found to be 54% in the assay on Colon cancer organoid [1]; 56.1% in the assay with Colon cancer organoid [2]; 82.5% in the assay on Colon cancer organoid [3]; 23.8% with Colon cancer organoid [4]; 56.9% in the assay on Colon cancer organoid [5].

As to `COc1cc(Nc2nccc(-c3cnn4nc(OC)ccc34)n2)cc(C(F)(F)F)c1`, the viability at 10 µM in the assay on Colon cancer organoid [1] amounted to 19.5%; in the assay with Colon cancer organoid [2] it was 53.3%; with Colon cancer organoid [3], 3.97%; in the assay on Colon cancer organoid [4], 3.12%; in the assay with Colon cancer organoid [5] it was 23.6%.

Consider `O=C1[C@H](Cc2ccc(O)cc2)N2C(=O)CCN(C(=O)NCc3ccccc3)[C@H]2CN1Cc1cccc2ccccc12`, for which the viability at 10 µM in the assay on Colon cancer organoid [1] was 85.3%; in the assay on Colon cancer organoid [2] it was 125%; with Colon cancer organoid [3], 37.1%; in the assay with Colon cancer organoid [4] it was 22%; with Colon cancer organoid [5] it was 103%.

In the case of `Cc1cc(C)cc(C(=O)NOCCCCCC(=O)NO)c1`, the viability at 10 µM in the assay on Colon cancer organoid [1] came out at 220%; in the assay with Colon cancer organoid [2] it was 193%; with Colon cancer organoid [3] it was 28.3%; with Colon cancer organoid [4] it was 31.1%; with Colon cancer organoid [5] it was 130%.

For `O=C(O)CNC(=O)c1c(O)c2ccccc2n(Cc2ccccc2)c1=O`, the viability at 10 µM came out at 67.5% with Colon cancer organoid [1]; 167% in the assay with Colon cancer organoid [2]; 103% in the assay on Colon cancer organoid [3]; 80.4% in the assay on Colon cancer organoid [4]; 95.1% in the assay with Colon cancer organoid [5].

In the case of `Cc1cc(=O)n(C)c2cc(N3C(=O)CC[C@H](NS(=O)(=O)CC(C)C)[C@H]3c3ccc(Cl)cc3)ccc12`, the viability at 10 µM in the assay with Colon cancer organoid [1] is 66%; in the assay with Colon cancer organoid [2] it was 144%; in the assay on Colon cancer organoid [3] it was 75.8%; in the assay on Colon cancer organoid [4] it was 72.6%; in the assay on Colon cancer organoid [5], 81.7%.

On to `C[C@@H]1CC(=O)Nc2cccc(-c3ccc4c(c3)c(-c3cnn(C)c3)nn4C)c2N1`, for which the viability at 10 µM with Colon cancer organoid [1] stood at 69%; in the assay on Colon cancer organoid [2] it was 115%; in the assay with Colon cancer organoid [3], 43.6%; in the assay on Colon cancer organoid [4], 21.1%; with Colon cancer organoid [5], 70.4%.

On to `CCN(C(=O)CO)[C@H]1CN(/C(=N\C#N)Nc2cccc(OC(F)F)c2)N=C1c1ccc(Cl)c(Cl)c1`, for which the viability at 10 µM with Colon cancer organoid [1] is 54.9%; in the assay on Colon cancer organoid [2], 84%; with Colon cancer organoid [3] it was 125%; with Colon cancer organoid [4] it was 62.2%; in the assay on Colon cancer organoid [5], 115%.

`CCc1cc2cc(NS(=O)(=O)c3ccc(C#N)cc3)ccc2n(CC)c1=O`: the viability at 10 µM came out at 73.6% with Colon cancer organoid [1]; 127% in the assay on Colon cancer organoid [2]; 106% in the assay with Colon cancer organoid [3]; 84% in the assay with Colon cancer organoid [4]; 88.2% in the assay with Colon cancer organoid [5].

Regarding `CO[C@H]1CNC[C@@H](OCC2CCC(F)(F)CC2)[C@@H]1Nc1ncc(-c2cncc(C)c2)c2cc(C)c(=O)[nH]c12`, the viability at 10 µM amounted to 78.8% with Colon cancer organoid [1]; 104% in the assay with Colon cancer organoid [2]; 78.7% with Colon cancer organoid [3]; 65.2% in the assay with Colon cancer organoid [4]; 81.8% in the assay with Colon cancer organoid [5].

Consider `CCCCNNC(=O)c1ccc(Br)cc1`, for which the viability at 10 µM with Colon cancer organoid [1] stood at 53.8%; in the assay with Colon cancer organoid [2], 151%; with Colon cancer organoid [3] it was 85.9%; in the assay on Colon cancer organoid [4], 44.9%; with Colon cancer organoid [5], 75%.

Turning to `Cc1sc2c(c1C)C(c1ccc(Cl)cc1)=N[C@@H](CC(=O)NCCCCCCCCNC(=O)COc1cccc3c1C(=O)N(C1CCC(=O)NC1=O)C3=O)c1nnc(C)n1-2` (stereo not given in full), the viability at 10 µM in the assay with Colon cancer organoid [1] amounted to 5.19%; in the assay with Colon cancer organoid [2], 6.5%; in the assay with Colon cancer organoid [3] it was 3.56%; in the assay on Colon cancer organoid [4], 2.25%; in the assay on Colon cancer organoid [5], 4.21%.

For `CN(C)CCCOc1ccc(-c2cc(NCCCn3cccn3)nc(S(C)(=O)=O)n2)cc1`, the viability at 10 µM in the assay with Colon cancer organoid [1] came out at 1.76%; in the assay on Colon cancer organoid [2], 0.601%; with Colon cancer organoid [3] it was 100%; with Colon cancer organoid [4] it was 65.9%; in the assay on Colon cancer organoid [5], 1.65%.

Turning to `COc1cc(N(C)c2ccnc3ccc(C(F)(F)F)cc23)cc(OC)c1OC`, the viability at 10 µM with Colon cancer organoid [1] was 69.7%; in the assay with Colon cancer organoid [2], 135%; with Colon cancer organoid [3], 109%; in the assay with Colon cancer organoid [4] it was 50.1%; in the assay with Colon cancer organoid [5], 64.7%.

Regarding `CC(C)(O)[C@H](F)CN1Cc2cc(NC(=O)c3cnn4cccnc34)c(N3CCOCC3)cc2C1=O`, the viability at 10 µM in the assay on Colon cancer organoid [1] was found to be 38.7%; in the assay with Colon cancer organoid [2] it was 85.8%; in the assay with Colon cancer organoid [3] it was 129%; in the assay on Colon cancer organoid [4] it was 23.3%; in the assay on Colon cancer organoid [5], 51.5%.

For `CNCCN1CCC(c2cc(CN(C)C(=O)c3cccc(Oc4ccccc4)c3)ccn2)CC1`, the viability at 10 µM is 71.9% in the assay on Colon cancer organoid [1]; 118% with Colon cancer organoid [2]; 80.6% with Colon cancer organoid [3]; 40.3% in the assay with Colon cancer organoid [4]; 84.5% in the assay with Colon cancer organoid [5].

Regarding `COc1c(C)cc(NC(=O)c2nn(Cc3ccc(F)cc3)c3c2CN(C(=O)c2ccc[nH]2)C[C@]3(C)C(N)=O)cc1C`, the viability at 10 µM in the assay with Colon cancer organoid [1] was 66.4%; with Colon cancer organoid [2], 81.4%; in the assay on Colon cancer organoid [3], 121%; in the assay with Colon cancer organoid [4] it was 52.8%; with Colon cancer organoid [5], 73.7%.

Take `CN(C(=O)c1cnn2cccnc12)c1cc2c(cc1N1CCOCC1)C(=O)N(C[C@@H](F)C(C)(C)O)C2`: the viability at 10 µM with Colon cancer organoid [1] was 39.2%; in the assay on Colon cancer organoid [2], 92.3%; with Colon cancer organoid [3] it was 139%; with Colon cancer organoid [4], 38.6%; in the assay with Colon cancer organoid [5], 61.8%.

On to `c1ccc(C2CCN(c3cnc4c(N5CCOCC5)nccn34)CC2)cc1`, for which the viability at 10 µM is 136% with Colon cancer organoid [1]; 207% in the assay on Colon cancer organoid [2]; 81.3% with Colon cancer organoid [3]; 78.2% with Colon cancer organoid [4]; 108% in the assay on Colon cancer organoid [5].

Turning to `Cc1cc(C)cc([C@@H]2c3cc(C)ccc3NC(=O)CN2C(=O)c2ccc(Br)s2)c1`, the viability at 10 µM with Colon cancer organoid [1] came to 76%; with Colon cancer organoid [2], 110%; in the assay with Colon cancer organoid [3] it was 85.7%; with Colon cancer organoid [4], 78.3%; with Colon cancer organoid [5], 82.1%.

Consider `Cc1cc(C)cc([C@H]2c3cc(C)ccc3NC(=O)CN2C(=O)c2ccc(Br)s2)c1`, for which the viability at 10 µM came out at 63.4% with Colon cancer organoid [1]; 84.3% with Colon cancer organoid [2]; 96.4% in the assay with Colon cancer organoid [3]; 63.7% in the assay with Colon cancer organoid [4]; 86.1% in the assay with Colon cancer organoid [5].

With `CC1=C(C)C(=O)C(C(C)(C)CC(=O)N(CCCCSC[C@H]2O[C@@H](n3cnc4c(N)ncnc43)[C@@H]3OC(C)(C)O[C@@H]32)Cc2cccc(-c3ccc(Cl)cc3)c2)=C(C)C1=O`, the viability at 10 µM came to 7.29% in the assay on Colon cancer organoid [1]; 8.34% with Colon cancer organoid [2]; 121% in the assay with Colon cancer organoid [3]; 66.1% in the assay with Colon cancer organoid [4]; 9.16% in the assay with Colon cancer organoid [5].

As for `COc1cc(C(=O)N2CC[C@@H](O)[C@@H](N)C2)cc2nc(-c3cc4ccccc4n3CC3CC3)n(C)c12`, the viability at 10 µM in the assay with Colon cancer organoid [1] came to 73.5%; with Colon cancer organoid [2] it was 112%; with Colon cancer organoid [3] it was 107%; in the assay on Colon cancer organoid [4], 58.8%; in the assay with Colon cancer organoid [5], 75.5%.

As for `COCCN1CCC(c2cc(CN(C)C(=O)c3cccc(Oc4ccccc4)c3)ccn2)CC1`, the viability at 10 µM was found to be 27.5% in the assay with Colon cancer organoid [1]; 46.6% in the assay on Colon cancer organoid [2]; 67.2% with Colon cancer organoid [3]; 65.6% in the assay with Colon cancer organoid [4]; 34% in the assay on Colon cancer organoid [5].

With `CC(=O)c1cc(-c2ccccc2OCC2CC2)c2ncccn12`, the viability at 10 µM with Colon cancer organoid [1] stood at 76.3%; in the assay on Colon cancer organoid [2], 142%; in the assay with Colon cancer organoid [3], 80.2%; in the assay with Colon cancer organoid [4], 73.2%; with Colon cancer organoid [5], 102%.

With `CN(C)C(=O)N1CC[C@H](NC2=Nc3cc(F)ccc3N(CC(F)F)c3ccc(Cl)cc32)C1`, the viability at 10 µM in the assay on Colon cancer organoid [1] worked out at 43.7%; in the assay on Colon cancer organoid [2], 102%; in the assay on Colon cancer organoid [3], 87.4%; in the assay on Colon cancer organoid [4] it was 61.6%; with Colon cancer organoid [5], 75.2%.

In the case of `CC1=C(C)C(=O)C(C(C)(C)CC(=O)N(CCCCSC[C@H]2O[C@@H](n3cnc4c(N)ncnc43)[C@H](O)[C@@H]2O)Cc2cccc(-c3ccc(Cl)cc3)c2)=C(C)C1=O`, the viability at 10 µM with Colon cancer organoid [1] was found to be 57.2%; in the assay with Colon cancer organoid [2], 92.3%; in the assay on Colon cancer organoid [3], 89.1%; in the assay with Colon cancer organoid [4], 59.5%; in the assay with Colon cancer organoid [5], 69.9%.

As for `CC(C)Oc1ccc(-c2c[nH]cc2CN(C)CCO)cc1`, the viability at 10 µM in the assay on Colon cancer organoid [1] is 90.2%; in the assay with Colon cancer organoid [2], 129%; in the assay with Colon cancer organoid [3], 72%; with Colon cancer organoid [4], 58.5%; in the assay with Colon cancer organoid [5], 80.1%.

On to `CCn1c(-c2nc3cc(C(=O)N4CCCC(N)C4)ccc3n2C)cc2ccccc21` (stereo not given), for which the viability at 10 µM in the assay on Colon cancer organoid [1] stood at 83.2%; with Colon cancer organoid [2] it was 139%; with Colon cancer organoid [3], 76.9%; in the assay with Colon cancer organoid [4], 65%; with Colon cancer organoid [5], 79.2%.

Turning to `CCOc1ccc(S(=O)(=O)Nc2ccc(Cl)cc2C#Cc2cnc(C(=O)O)cc2OC)c2ncccc12`, the viability at 10 µM came to 46.2% in the assay on Colon cancer organoid [1]; 95.3% in the assay on Colon cancer organoid [2]; 102% with Colon cancer organoid [3]; 42.8% with Colon cancer organoid [4]; 77.6% in the assay with Colon cancer organoid [5].

On to `Cc1cc(CN)cc(C)c1-c1ncn(C)c1-c1ccnc2cc(F)ccc12`, for which the viability at 10 µM came out at 53.8% in the assay with Colon cancer organoid [1]; 122% with Colon cancer organoid [2]; 90.5% with Colon cancer organoid [3]; 63.2% in the assay with Colon cancer organoid [4]; 86.8% with Colon cancer organoid [5].

For orientation: viability means a read-out of living cells in per cent, often relative to untreated cells.
